Experimental findings from patent US5856166A, “Streptomyces proteases and methods for improved secretion of recombinantly-expressed proteins” (Cangene Corporation, priority 1994, dated 1999) are described below.

What is called inhibition is how much of the control response was suppressed. What is called kinact is the maximal first-order rate at which the target is inactivated.

“Also recorded” adds a separate entry of the source. Where two headings read alike, the source gives them in different places. Where a SMILES comes first, the peptide text is derived from it. [ ]: non-standard residue; d: D form. The star is where a group is joined. Sta = CC(C)C[C@H](N)[C@@H](O)CC(=O)O; pNA = O=[N+]([O-])c1ccc(N*)cc1; Isovaleryl = CC(C)CC(=O)*; βNA = c1ccc2cc(N*)ccc2c1; CH2Cl = ClC*

Series [1] has as its target T1, Tap (tripeptidyl aminopeptidase) (Streptomyces lividans, UniProt Q54410).
T1 construct: An autolytic tripeptide cleavage removing APA after signal peptide removal would yield the N-terminal found for the secreted protease; made in house; host or cells: Streptomyces lividans 66 (wild-type strain, native secreted enzyme purified from the broth)
T1 sequence (Q54410 40-537): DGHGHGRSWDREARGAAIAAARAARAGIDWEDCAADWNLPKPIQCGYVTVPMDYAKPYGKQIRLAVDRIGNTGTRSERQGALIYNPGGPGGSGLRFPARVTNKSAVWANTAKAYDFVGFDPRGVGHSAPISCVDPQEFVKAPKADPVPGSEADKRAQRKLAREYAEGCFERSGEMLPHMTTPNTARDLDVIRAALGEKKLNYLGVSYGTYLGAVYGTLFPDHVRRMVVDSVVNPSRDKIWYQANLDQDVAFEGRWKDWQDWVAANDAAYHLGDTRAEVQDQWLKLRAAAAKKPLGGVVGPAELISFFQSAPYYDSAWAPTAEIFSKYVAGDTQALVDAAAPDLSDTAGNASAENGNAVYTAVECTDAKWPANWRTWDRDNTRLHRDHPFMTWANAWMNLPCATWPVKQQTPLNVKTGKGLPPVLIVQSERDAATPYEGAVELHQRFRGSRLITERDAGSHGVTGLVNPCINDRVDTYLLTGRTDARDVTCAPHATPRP
Description: Inactivation of Tap by APACMK assayed with APA-pNA, determination of kinetic constants. The format is biochemical, S. lividans 66. The protocol:
The concentration of Tap in the inactivations was 1.0 uM. The inactivation and assay were conducted as described in Example 8. In FIG. 6, (O)=2.70 uM APACMK; (Δ)=2.16 uM APACMK; (.quadrature.)=1.73 uM APACMK; (*)=1.38 uM APACMK; (+)=No APACMK.
The methods employed are described in Examples 6, 7, and 8.
A stock solution of 10 nM Tap in 100mM Tris-HCl, pH 8.0 was prepared. Serial dilutions of 210 uM, 21 uM, 2.1 uM, 210 nM, 21 nM, and 2.1 nM APACMK (Example 5) were prepared. To the microtiter well, 25 ul of Tap followed by 25 ul of an APACMK dilution or distilled water, for an uninhibited control, were added. The assays were incubated for 20 minutes at 22° C. 50 ul 1.6 mM APA-pNA were added to each well. The absorbance was read at 405 nm then incubated at 37° C. The change in absorbance at 405 nm was read after 15 and 60 minutes of incubation.
A stock solution of 1.1 uM Tap in 50 mM Tris-HCl, pH 8.0 was prepared. APACMK stock solutions of 11 uM, 13.8 uM, 17.3 uM, 21.7 uM, 27.0 uM, 54.0 uM, 108 uM, and 1.08 mM were prepared. The Substrate Solution was 50 mM Tris-HCl, pH 8.0, 0.8 mM APA-pNA. The inactivation was performed by placing 90 ul of Tap […] in a 1.5 ml Eppendorf tube on ice and adding 10 ul of water (uninhibited control) or 10 ul of APACMK. A 10 ul aliquot was removed immediately and was assayed by adding it to a cuvette containing 390 ul Substrate Solution at 22° C. The initial velocity was obtained from the change in absorbance at 405 nm during the first 10 seconds of the assay. Additional aliquots were removed at time points and assayed by the same method. At APACMK concentrations greater than 5.0 uM in the incubation, it was not possible to remove an aliquot from the incubation before 90% inactivation occurred.

The target of series [2] is T1, Tap (tripeptidyl aminopeptidase). Description: Cleavage of GM-CSF by Tap, native gel electrophoresis. The format is biochemical, S. lividans 66. On the procedure:
The assay was performed as described in Example 7. The Tap concentration in the assays was 5 nM. Lane 1=GM-CSF standard; Lane 2=GM-CSF after digestion with Tap in the absence of APACMK; Lanes 3 and 4=150 uM APACMK; Lanes 5 and 6=15 uM APACMK; Lanes 7 and 8=1.5 uM APACMK; Lanes 9 and 10=150 nM APACMK; Lanes 11 and 12=15 nM APACMK; Lanes 13 and 14=1.5 nM APACMK; Lanes 15 and 16=150 pM APACMK.
To 10 ul of rhGM-CSF (10 ug, Cangene) and 20 ul 20 mM Tris-HCl, pH 8.0, 20 ul of Tap were added. The assays were incubated at 37° C. for 2 hrs. 20 ul of 125 mM Tris-HCl, pH 6.8, 0.1% bromophenol blue in 50% aqueous glycerol were added. Products were separated by native gel electrophoresis at constant current on a 17% polyacrylamide gel by a modification of the method of Davies (Davies, 1964) in which the pH of all buffers was modified with H2 SO4. Products were visualized by staining with Coomassie Blue G-250 (see FIG. 1A).
A stock solution of 10 nM Tap in 20 mM Tris-HCl, pH 8.0 was prepared. Serial dilutions of 210 uM, 21 uM, 2.1 uM, 210 nM, 21 nM, and 2.1 nM APACMK (Example 5) were prepared. To 20 ul Tap, 20 ul of an APACMK dilution (or water for an uninhibited enzyme control) were added and incubated at 22° C. for 30 minutes. 10 ul of GM-CSF (1 ug/ul, Cangene) were added and incubated at 37° C. for 2 hours. Products were analyzed by native gel electrophoresis as described in Example 2.

The next series concerns the target T2, Tap (Streptomyces lividans, UniProt Q54410).
T2 construct: 100 ml of media was inoculated in 500 ml baffle-bottom flasks with 100 ul of S. lividans 66 working seed bank material; endogenous in cells; host or cells: Streptomyces lividans 66
T2 sequence (Q54410 40-537): T1 sequence (Q54410 40-537)
Description: Inhibition of Tap by APACMK during fermentation of S. lividans (GM-CSF(-3) formation). To be noted: 10 uM APACMK added after 25 hours; sampled to 48 hours. The class given is cell-based, S. lividans 66. The protocol:
When APACMK and GM-CSF were added to the protease-containing broth from S. lividans fermentations, the formation of the GM-CSF(-3) degradation product was inhibited. Lane 1=Standard containing GM-CSF and GM-CSF(-3). Lanes 2-6 show a fermentation in the presence of 10 uM APACMK. Lane 2=25 hours growth; Lane 3=27 hours growth; Lane 4=29 hours growth; Lane 5=31 hours growth; Lane 6=48 hours growth. Lanes 7-11 show a fermentation without APACMK. Lane 7=25 hours growth; Lane 8=27 hours growth; Lane 9=29 hours growth; Lane 10=31 hours growth; Lane 11=48 hours growth. GM-CSF degradation was analyzed by native gel electrophoresis.
(§1) 100 ml of media was inoculated in 500 ml baffle-bottom flasks with 100 ul of S. lividans 66 working seed bank material. The cultures were grown in a New Brunswick gyratory incubator at 32° C. and 240 rpm. The cultures were sampled at 25, 27, 29, 31, and 48 hours post-inoculation and analyzed by native gel electrophoresis (see FIG. 7). Following removal of the 25 hour sample, 100 mM APACMK in sterile water were added to yield a final concentration of 10 uM. A control flask without APACMK was retained.

A further series concerns S. lividans 66. Description: Cell growth of S. lividans fermentation in the presence of APACMK. To be noted: 10 uM APACMK. The format is cell-based. On the procedure: as §1
The target in series [3] is T1, Tap (tripeptidyl aminopeptidase). The experiment in a line: Inhibition of TAP in the APA-pNA assay (protease inhibitor survey, Table I). The class given is biochemical, S. lividans 66. Conditions: for remaining activity at 10000 µM / remaining activity at 1000 µM / remaining activity at 100 µM: read-out: Residual Activity. The protocol:
The protease and inhibitor were preincubated for 15 minutes at 22° C. Substrate was added and the mixture was incubated at 37° C. Activity was measured by monitoring the change in absorbance at λ=405 nm.
(§2) The assay was conducted in a 96 well microtiter plate. To each well in the assay, 50 ul 100 mM Tris-HCl, pH 8.0, were added followed by 25 ul 3.2 mM APA-pNA. 25 ul of Tap were added to the wells and the absorbance was read at 405 nm. The assays were incubated at 37° C. for 2 hours. The absorbance was read at 405 nm. The activity (release of p-nitroaniline) was calculated from the change in absorbance.

Series [4] shares this target. The experiment in a line: Release of reporter group from synthetic substrates by pure Tap. The class given is biochemical, S. lividans 66. The protocol: The enzyme was also active when APM-pNA, APA-AMC, APS-bNA, GPL-bNA, and SPA-bNA were used as substrates. […] The enzyme only released the reporter group from substrates with a free amino terminal.
as §2

Setting [5] is: inactivation of Tap, APA-pNA as substrate.
Where [6] appears, read: inhibitor 10 mM, preincubated 15 minutes at 22° C., substrate APA-pNA, enzyme only = 100.
The mark [7] stands for this setting: inhibitor 1.0 mM, preincubated 15 minutes at 22° C., substrate APA-pNA, enzyme only = 100.
Setting [8] is: inhibitor 0.1 mM, preincubated 15 minutes at 22° C., substrate APA-pNA, enzyme only = 100.

As for `C[C@H](N)C(=O)N1CCC[C@H]1C(=O)N[C@@H](C)C(=O)CCl` [APACMK, L-alanyl-L-prolyl-L-alanine chloromethylketone] (H-Ala-Pro-Ala-CH2Cl), the “effect on release of p-nitroaniline from APA-pNA by Tap” value in series [1] is listed as “stopped the release of p-nitroaniline; also recorded: inactivated Tap at very low concentrations”. Also, the inhibition at 2.7 µM in series [1] (0.1 h, within 6 minutes at 0° C., inhibitor concentration 2.7 uM, inhibitor/enzyme molar ratio 2.7) is more than 99%. In addition, in series [1] (setting [5]), the Ki is 3.3 µM and the kinact was 0.00233 s⁻¹. The “effect on cleavage of GM-CSF by Tap” value in series [2] was “stopped the cleavage of GM-CSF; also recorded: inactivated Tap at very low concentrations”. Moreover, the “formation of GM-CSF(-3) degradation product in S. lividans fermentation” value at Tap was “prevented cleavage of GM-CSF; also recorded: inhibited; also recorded: significantly reduced formation of GM-CSF(-3)”. The “cell growth during fermentation” value in the series on S. lividans 66 was “did not significantly retard the rate of cell growth; also recorded: did not inhibit cell growth”.
As to `N=C(N)c1ccccc1` [Benzamidine], the remaining activity at 10000 µM in series [3] (setting [6]) is 94%.
Turning to `[Ca+2].[Cl-].[Cl-]` [CaCl2], the “Residual Activity” value came to 96 in series [3] (setting [7]) and 97 in series [3] (setting [6]).
The like results for `[Cl-].[Cl-].[Co+2]` [CoCl2] were, in that order, 98 and 97.
Take `OC(CS)C(O)CS` (stereo not drawn) [DTT]: in series [3] (setting [7]), the remaining activity at 1000 µM stood at 86%.
Take `O=C(O)CN(CCN(CC(=O)O)CC(=O)O)CC(=O)O` [EDTA, Ethylenediaminetetraacetic acid]: in series [3], the remaining activity at 1000 µM worked out at 95% and the remaining activity at 10000 µM turned out to be 95%.
In the case of `CC(C)C[C@H](NC(=O)N[C@H](C(=O)N[C@@H](CCC(N)=O)C(=O)N[C@@H](C)C=O)[C@@H]1CCNC(=N)N1)C(=O)O` [Elastatinal], the remaining activity at 100 µM in series [3] (setting [8]) was found to be 97%.
Turning to `[Cl][Hg][Cl]` [HgCl1], the “Residual Activity” value in series [3] (setting [8]) is listed as 99; in series [3] (setting [7]), 93.
In the case of `CC(=O)N[C@@H](C)C(=O)N1CCC[C@H]1C(=O)N[C@@H](C)C(=O)Nc1ccc([N+](=O)[O-])cc1` [N-Ac-APA-pNA, N-acetyl-L-alanyl-L-prolyl-L-alanine p-nitroanilide] (Ac-Ala-Pro-Ala-pNA), the “release of reporter group when used as substrate of Tap” value (from here on “release of reporter group when used”) in series [4] is given as “did not release the reporter group”.
Take `N=C(N)NCCC[C@H](NC(=O)c1ccccc1)C(=O)Nc1ccc([N+](=O)[O-])cc1` [N-Bz-R-pNA]: the “release of reporter group when used” value in series [4] was “did not release the reporter group”.
Regarding `O=C(Nc1ccc([N+](=O)[O-])cc1)[C@@H]1CCCN1` [P-pNA, L-proline p-nitroanilide], the “release of reporter group when used” value in series [4] was “did not release the reporter group”.
For the molecule `CC(C)CC(=O)N[C@H](C(=O)N[C@H](C(=O)N[C@@H](CC(C)C)[C@@H](O)CC(=O)N[C@@H](C)C(=O)N[C@@H](CC(C)C)[C@@H](O)CC(=O)O)C(C)C)C(C)C` [Pepstatin] (Isovaleryl-VV[Sta]A[Sta]-OH), in series [3] (setting [8]), the remaining activity at 100 µM came to 95%.
For `N=C(N)NCCC[C@H](N)C(=O)Nc1ccc([N+](=O)[O-])cc1` [R-pNA, L-arginine p-nitroanilide], in series [4], the “release of reporter group when used” value is listed as “did not release the reporter group”.
As for `N[C@@H](CO)C(=O)Nc1ccc2ccccc2c1` [S-bNA, L-serine beta-naphthylamide], the “release of reporter group when used” value in series [4] was “did not release the reporter group”.
Same read-out and setting: as for `C[C@H](NC(=O)[C@@H]1CCCN1C(=O)[C@@H](N)CO)C(=O)Nc1ccc2ccccc2c1` [SPA-bNA, L-seryl-L-prolyl-L-alanine beta-naphthylamide] (H-Ser-Pro-Ala-βNA), the entry is “active”.
Chymostatin: the “Residual Activity” value in series [3] (setting [8]) was 98.
With “N-benzoyl-L-alanyl-glycyl-L-arginine p-nitroanilide [N-Bz-VGR-pNA]”, in series [4], the “release of reporter group when used” value is recorded as “did not release the reporter group”.
